# From patent US20260200978A1, “PEPTIDE INHIBITORS OF BETA-LACTAMASE” (priority 2022, published 2026)
# Square brackets hold non-standard residues; d marks the D form. Peptide text beside a SMILES is read from it.
# How the values were obtained:
# PBP2a = PBP2a (Staphylococcus aureus, UniProt P07944); assay: PBP2a colorimetry assay; format: biochemical
# From the text: Methicillin-resistant Staphylococcus aureus (MRSA) contains the mecA gene in a mobile genetic element found in all MRSA strains, which encodes penicillin-binding protein 2a (PBP2a). PBPs are membrane-bound enzymes that catalyze the transpeptidation reaction that is necessary for cross-linkage of peptidoglycan chains for cell wall formation and targeted by β-lactam. Because of the low affinity of PBP2a for all β-lactam antibiotics, it can substitute for other PBPs under high concentrations of f-lactam antibiotics. As a result. MRSA strains are highly resistant to β-lactam antibiotics.
# TEM-1 β-lactamase = TEM-1 β-lactamase (Escherichia coli, UniProt P62593); assay: β-lactamase colorimetry assay (TEM-1 inhibition); format: biochemical, E. coli; conditions: for TEM-1 inhibition compared with T61-25: β-lactamase colorimetry assay
# TEM-1 β-lactamase, sequence (P62593 24-286 limits assumed): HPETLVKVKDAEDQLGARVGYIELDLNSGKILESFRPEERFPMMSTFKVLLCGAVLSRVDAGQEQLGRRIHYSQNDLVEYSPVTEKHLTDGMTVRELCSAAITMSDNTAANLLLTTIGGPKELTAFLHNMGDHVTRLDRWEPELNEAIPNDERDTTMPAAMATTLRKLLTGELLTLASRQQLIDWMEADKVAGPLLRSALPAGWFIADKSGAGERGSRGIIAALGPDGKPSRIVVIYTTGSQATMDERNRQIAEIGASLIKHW
# From the text: The bacteria can express a β-lactamase and the antibacterial peptide can inhibit the ability of the β-lactamase to cleave a β-lactam ring. This can be measured using a beta lactamase inhibition assay like a commercially available beta lactamase inhibitor screening kit. These kits test the ability of a beta lactamase to hydrolyze a chromogenic substrate, which results in the generation of a colored product. The amount of color produced is directly proportional to the amount of beta-lactamase activity. In the presence of beta lactamase inhibitors, such as clavulanic acid or the antibacterial peptides described herein, the rate of substrate hydrolysis will decrease resulting in a decrease in the production of colored analyte. The non-peptide β-lactamase inhibitor can include clavulanate, clavulanic acid, sulbactam, taobactam, avibactam, relebacam, RG6080, or RPX7009.
# [1] = 25% human serum, 0 hours and 24 hours (FIG. 1)
# SAP231 = assay: Enhancement of cefazolin killing of MRSA; format: cell-based, Staphylococcus aureus; conditions: at the test concentrations, 0 μg/ml peptide
# Experimental: FIGS. 4A and 4B are graphs showing RI-D-BP100-T61-25 combined with cefazolin and tested against both SAP231 (FIG. 4A) and NRS384 strain (FIG. 4B).
# Additionally, the peptide's potency at enhancing cefazolin killing of MRSA was also tested. Cefazolin is a cephalosporin, which are improved β-lactams developed to overcome some of the early penicillin resistance. Cefazolin is a first line therapy for the treatment of Methicillin-susceptible Staphylococcus aureus (MSSA) infections. […] RI-D-BP100-T61-25 was also combined with cefazolin and tested against both SAP231 (FIG. 4A) and NRS384 strain (FIG. 4B).
# PBP2a, sequence (P07944 whole entry): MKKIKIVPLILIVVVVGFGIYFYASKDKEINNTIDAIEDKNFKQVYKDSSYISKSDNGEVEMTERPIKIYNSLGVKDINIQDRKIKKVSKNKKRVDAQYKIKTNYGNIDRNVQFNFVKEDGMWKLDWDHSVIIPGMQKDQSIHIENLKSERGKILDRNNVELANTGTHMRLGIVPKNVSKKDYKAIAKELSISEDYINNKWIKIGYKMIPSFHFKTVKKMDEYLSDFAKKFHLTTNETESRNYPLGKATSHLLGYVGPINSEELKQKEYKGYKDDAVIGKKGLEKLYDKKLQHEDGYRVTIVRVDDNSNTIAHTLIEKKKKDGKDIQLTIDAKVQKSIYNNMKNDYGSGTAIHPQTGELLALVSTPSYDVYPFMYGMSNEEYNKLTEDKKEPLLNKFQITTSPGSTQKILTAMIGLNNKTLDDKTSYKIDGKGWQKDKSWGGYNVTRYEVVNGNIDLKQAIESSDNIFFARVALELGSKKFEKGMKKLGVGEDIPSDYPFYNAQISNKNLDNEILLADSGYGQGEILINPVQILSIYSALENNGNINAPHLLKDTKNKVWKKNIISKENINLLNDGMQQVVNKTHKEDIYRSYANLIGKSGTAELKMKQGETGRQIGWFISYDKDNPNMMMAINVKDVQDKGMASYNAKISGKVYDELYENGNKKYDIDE
smiles,measurement,setting,value
CC(C)C[C@H](NC(=O)[C@H](Cc1ccc(O)cc1)NC(=O)[C@@H](NC(=O)[C@@H](N)CCCCN)[C@@H](C)O)C(=O)N[C@@H](C)C(=O)N[C@@H](CCC(N)=O)C(=O)N[C@@H](C)C(=O)N[C@@H](C)C(=O)N[C@@H](C)C(=O)N[C@H](C(=O)NCC(=O)O)[C@@H](C)O [Inhibitor T61-25],inhibition of PBP2a activity,PBP2a,capable of inhibiting PBP2a activity at μM range
"CC(C)C[C@@H](NC(=O)[C@@H](C)NC(=O)[C@@H](CCC(N)=O)NC(=O)[C@@H](C)NC(=O)[C@@H](C)NC(=O)[C@@H](C)NC(=O)[C@H](NC(=O)CN)[C@H](C)O)C(=O)N[C@H](Cc1ccc(O)cc1)C(=O)N[C@@H](C(=O)N[C@H](CCCCN)C(=O)O)[C@H](C)O [RI-D-T61-25, dGdTdAdAdAdQdAdLdYdTdK]",Ki,TEM-1 β-lactamase,880 ± 40 nM
same,TEM-1 inhibition compared with T61-25,TEM-1 β-lactamase,maintained comparable levels of TEM-1 inhibition as T61-25
"CC[C@@H](C)[C@@H](NC(=O)[C@@H](CC(C)C)NC(=O)[C@@H](CCCCN)NC(=O)[C@@H](Cc1ccc(O)cc1)NC(=O)[C@@H](CC(C)C)NC(=O)[C@@H](CCCCN)NC(=O)[C@H](NC(=O)[C@@H](Cc1ccc(O)cc1)NC(=O)[C@@H](CC(C)C)NC(=O)[C@@H](C)NC(=O)[C@@H](CCC(N)=O)NC(=O)[C@@H](C)NC(=O)[C@@H](C)NC(=O)[C@@H](C)NC(=O)[C@H](NC(=O)CN)[C@H](C)O)[C@H](C)O)C(=O)N[C@H](CCCCN)C(=O)N[C@H](CCCCN)C(=O)N[C@H](Cc1ccccc1)C(=O)N[C@H](CC(C)C)C(=O)N[C@H](CCCCN)C(=O)N[C@H](CCCCN)C(=O)O [RI-D-BP100-T61-25, dGdTdAdAdAdQdAdLdYdTdKdLdYdKdLdIdKdKdFdLdKdK] (H-G[dT][dA][dA][dA][dQ][dA][dL][dY][dT][dK][dL][dY][dK][dL][dI][dK][dK][dF][dL][dK][dK]-OH; N-terminus and C-terminus assumed)",serum stability,[1],better than the L-peptide BP100-T61-25
CC(C)C[C@@H](NC(=O)[C@@H](Cc1ccc(O)cc1)NC(=O)[C@H](NC(=O)[C@H](N)CCCCN)[C@H](C)O)C(=O)N[C@H](C)C(=O)N[C@H](CCC(N)=O)C(=O)N[C@H](C)C(=O)N[C@H](C)C(=O)N[C@H](C)C(=O)N[C@@H](C(=O)NCC(=O)O)[C@H](C)O [D-T61-25],TEM-1 inhibition compared with T61-25,TEM-1 β-lactamase,maintained comparable levels of TEM-1 inhibition as T61-25
"Cc1nnc(SCC2=C(C(=O)O)N3C(=O)[C@@H](NC(=O)Cn4cnnn4)[C@H]3SC2)s1 [cefazolin, Cefazolin]",inhibition of SAP231 growth by cefazolin alone,SAP231,partially inhibited
CC(C)C[C@H](NC(=O)[C@H](Cc1ccc(O)cc1)NC(=O)[C@H](NC(=O)[C@@H](N)CCCCN)[C@H](C)O)C(=O)N[C@@H](C)C(=O)N[C@@H](CCC(N)=O)C(=O)N[C@@H](C)C(=O)N[C@@H](C)C(=O)N[C@@H](C)C(=O)N[C@H](C(=O)NCC(=O)O)[C@@H](C)O [D-T2],TEM-1 inhibition compared with T61-25,TEM-1 β-lactamase,maintained comparable levels of TEM-1 inhibition as T61-25
